In ChEMBL document CHEMBL1149135, “Aza-peptide Michael acceptors: a new class of inhibitors specific for caspases and other clan CD cysteine proteases” (J Med Chem, 2004):

Tests used:
Caspase-3 (Homo sapiens) = target: T1, Caspase-3 (Homo sapiens) (UniProt P42574); test: Compound was evaluated for potent inhibition of caspase-3
T1 sequence (whole entry): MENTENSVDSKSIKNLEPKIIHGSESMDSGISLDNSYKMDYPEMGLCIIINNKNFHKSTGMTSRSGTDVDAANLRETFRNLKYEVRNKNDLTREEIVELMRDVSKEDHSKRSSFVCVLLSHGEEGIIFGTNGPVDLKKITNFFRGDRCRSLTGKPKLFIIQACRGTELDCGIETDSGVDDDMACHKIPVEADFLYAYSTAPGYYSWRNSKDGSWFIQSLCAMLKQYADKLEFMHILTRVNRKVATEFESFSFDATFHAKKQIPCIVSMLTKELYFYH

Caspase-6 (Homo sapiens) = target: T2, Caspase-6 (Homo sapiens) (UniProt P55212); test: Compound was evaluated for potent inhibition of caspase-6
T2 sequence (whole entry): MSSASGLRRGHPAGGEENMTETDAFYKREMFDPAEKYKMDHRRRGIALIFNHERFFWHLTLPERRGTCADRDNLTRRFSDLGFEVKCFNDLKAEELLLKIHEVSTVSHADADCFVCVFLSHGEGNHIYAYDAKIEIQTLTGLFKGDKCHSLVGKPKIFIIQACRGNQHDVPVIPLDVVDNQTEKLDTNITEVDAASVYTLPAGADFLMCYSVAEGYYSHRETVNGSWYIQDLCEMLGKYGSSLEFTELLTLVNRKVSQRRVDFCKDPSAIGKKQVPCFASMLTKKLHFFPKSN

Caspase-8 (Homo sapiens) = Caspase-8 (Homo sapiens) (UniProt Q14790); test: Compound was evaluated for potent inhibition of caspase-8
Caspase-8 (Homo sapiens), sequence (Q14790 217-374 limits assumed): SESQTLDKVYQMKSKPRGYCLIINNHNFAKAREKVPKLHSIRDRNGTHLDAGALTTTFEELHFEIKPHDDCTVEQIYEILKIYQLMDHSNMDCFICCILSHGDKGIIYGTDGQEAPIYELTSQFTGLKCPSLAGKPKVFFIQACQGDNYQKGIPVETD
Caspase-8 (Homo sapiens), sequence (Q14790 385-479 limits assumed): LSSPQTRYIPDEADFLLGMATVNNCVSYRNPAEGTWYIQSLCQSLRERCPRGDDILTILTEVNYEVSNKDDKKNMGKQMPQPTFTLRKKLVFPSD

[1] = test system: Lys-gingipain (Porphyromonas gingivalis); test: Compound was evaluated for irreversible inhibition of Lys-gingipain
[2] = test system: Clostripain (Clostridium histolyticum); test: Compound was evaluated for irreversible inhibition of clostripain

| k2 (Caspase-3 (Homo sapiens)) [M⁻¹ s⁻¹] | k2 (Caspase-6 (Homo sapiens)) [M⁻¹ s⁻¹] | k2 (Caspase-8 (Homo sapiens)) [M⁻¹ s⁻¹] | k2 [2] [M⁻¹ s⁻¹] | Compound | k2 [1] [M⁻¹ s⁻¹] |
| --- | --- | --- | --- | --- | --- |
| 5560 | 18700 | 237000 |  | CCOC(=O)/C=C/C(=O)N(CC(=O)O)NC(=O)[C@@H](NC(=O)[C@H](CCC(=O)O)NC(=O)[C@H](CC(C)C)NC(=O)OCc1ccccc1)[C@@H](C)O |  |
| 2.13e+06 | 35600 | 273000 |  | CCOC(=O)/C=C/C(=O)N(CC(=O)O)NC(=O)[C@@H](NC(=O)[C@H](CCC(=O)O)NC(=O)[C@H](CC(=O)O)NC(=O)OCc1ccccc1)C(C)C |  |
| 4600 | 47600 | 98400 |  | CC(C)C[C@H](NC(=O)OCc1ccccc1)C(=O)N[C@@H](CCC(=O)O)C(=O)N[C@H](C(=O)NN(CC(=O)O)C(=O)/C=C/C(=O)OCc1ccccc1)[C@@H](C)O |  |
|  |  |  | 788 | CCOC(=O)/C=C/C(=O)N(CCCN)NC(=O)[C@H](CC(C)C)NC(=O)OCCc1ccccc1 | 927000 |
|  |  |  | 40800 | CCOC(=O)/C=C/C(=O)N(CCCCN)NC(=O)[C@H](CC(C)C)NC(=O)OCCc1ccccc1 | 3.28e+06 |

More lines, now with the values behind:

| Compound | k2 (Caspase-3 (Homo sapiens)) [M⁻¹ s⁻¹] | k2 (Caspase-6 (Homo sapiens)) [M⁻¹ s⁻¹] | k2 (Caspase-8 (Homo sapiens)) [M⁻¹ s⁻¹] | k2 [2] [M⁻¹ s⁻¹] | k2 [1] [M⁻¹ s⁻¹] |
| --- | --- | --- | --- | --- | --- |
| CC(C)[C@H](NC(=O)[C@H](CCC(=O)O)NC(=O)[C@H](CC(=O)O)NC(=O)OCc1ccccc1)C(=O)NN(CC(=O)O)C(=O)/C=C/C(=O)N(C)Cc1ccccc1 | 2.64e+06 | 9500 | 90300 |  |  |
| CC(C)[C@H](NC(=O)[C@H](CCC(=O)O)NC(=O)[C@H](CC(=O)O)NC(=O)OCc1ccccc1)C(=O)NN(CC(=O)O)C(=O)/C=C/C(=O)NCc1ccccc1 | 1.75e+06 | 3210 | 78200 |  |  |
| CC(C)C[C@H](NC(=O)OCc1ccccc1)C(=O)N[C@@H](CCC(=O)O)C(=O)N[C@H](C(=O)NN(CC(=O)O)C(=O)/C=C/C(=O)N(C)Cc1ccccc1)[C@@H](C)O | 6000 | 10800 | 169000 |  |  |
| CC(C)[C@H](NC(=O)[C@H](CCC(=O)O)NC(=O)[C@H](CC(=O)O)NC(=O)OCc1ccccc1)C(=O)NN(CC(=O)O)C(=O)/C=C/C(=O)OCc1ccccc1 | 1.7e+06 | 8470 | 121000 |  |  |
